# What was measured:
# RAW264.7 cells = test: MTT cytotoxicity assay on RAW264.7 cells; type: cell-based; details: macelignan 1-20 μM, 24 hours
# Procedure: In order to examine the effect of macelignan obtained in <Example 1> on the production of inflammatory response mediators, the macrophage RAW264.7 cell line was used. The macrophage RAW264.7 cell line (ATCC TIB-71) was purchased from American Tissue Culture Collection (Rockville, Md., USA). The cell line was cultured in DMEM (Dulbecco's Modified Eagle's Medium, Gibco, USA) supplemented with 10% heat inactivated FBS (fetal bovine serum, Gibco, USA), 100 U/ml penicillin G and 100 μg/ml streptomycin, in a 5% CO2 incubator at 37° C. In order to examine the effect of the inventive macelignan on the viability of RAW 264.7 cells, analysis was performed based on the reduction of MTT changed into a purple formazan product by mitochondrial dehydrogenase (Hayon T. et al., Leuk. Lymphoma. 44(11): 1957-1962, 2003). 1×10^6 cells/ml of RAW264.7 cells were inoculated into RPMI 1640 medium, and after 6 hours, were treated with the inventive macelignan at concentrations up to 1-80 μM/ml. After 24 hours, the viability of the cells was measured by the MTT assay.
# [1] = tested on: inflammatory cells, mast cells, eosinophils; test: Skin staining (H&E, Toluidine blue, Congo red), atopic dermatitis model; type: in vivo, NC/Nga mice
# Procedure: 8-week-old NC/Nga mice (20-25 g) were purchased from Chungang Lab. Animal. After adapting for 1 week, the NC/Nga mouse was anesthetized with 90% ethyl ether (Ducsan, Korea) and hair was removed from the occipital region and the back of the mouse using depilatory cream (Reckitt Benckiser, France). After allowing micro wound healing for a day, 100 mg of mite antigen cream (Biostir, Inc. Japan) comprising Dermatophagoides farina, which causes atopic dermatitis, as a main ingredient was evenly applied on the ear, occipital region and back, 3 times a week (for 5 weeks, from week 9 to week 13). 2 hours before application of the mite antigen cream, 4% SDS solution was applied at the same area to increase transdermal absorption of the mite antigen cream by inducing the breakdown of skin fats and cuticle layer. From week 3 following the application, IgE value was measured to quantitate the degree of atopic dermatitis. Also during the drug treatment period (week 12 to week 13), 100 mg of the mite antigen cream was applied 3 times a week to prevent spontaneous healing of the atopic dermatitis.
# In order to induce atopic dermatitis, 100 mg of mite antigen cream was applied on the ear, occipital region and back of NC/Nga mouse (9 to 11 weeks old), except for the negative control group, 3 times a week, 2 hours after the application of 4% SDS solution. Three weeks later, it was observed whether atopic dermatitis was induced by checking skin rash, erythema, cornification, or the like. Atopic dermatitis was induced in all groups except for the negative control group. For drug treatment and evaluation of therapeutic effect, mice were grouped into 12 groups, 6 oral administration groups and 6 topical application groups (each consisting of negative control group, positive control group, macelignan low conc. group, macelignan high conc. group, nutmeg extract low conc. group, and nutmeg extract high conc. group), with n=5 per cage. During the following drug treatment and evaluation period of 2 weeks (12 to 13 weeks old), the negative control groups, which had not been treated with 4% SDS solution and mite antigen cream, were treated with physiological saline (oral administration group) or base cream (topical application group) every day, and the positive control groups, which had been treated with 100 mg of mite antigen cream 2 hours after application of 4% SDS solution, 3 times every week, were treated with physiological saline (oral administration group) or base cream (topical application group). The oral administration groups were treated with 100 mg of mite antigen cream 2 hours after application of 4% SDS solution, 3 times every week, and were treated with macelignan or nutmeg extract at low concentration (50 mg/kg/day) or high concentration (150 mg/kg/day) every day. The topical application groups were treated with 100 mg of mite antigen cream 2 hours after application of 4% SDS solution, 3 times every week, and were treated with macelignan cream or nutmeg extract cream at low concentration (20 mg/kg/day) or high concentration (60 mg/kg/day) every day. Transepidermal water loss (TEWL), skin hydration and erythema index were measured one day before the end of the test. Serum was obtained by retro-orbital blood sampling. After the end of the test (14 weeks old) spleen and skin tissues from occipital region and back were sampled and stored at −70° C. ALN (axillary lymph node) was stored in DMEM containing 2% FBS (fetal bovine serum). The skin tissues were stored in 10% formalin solution.
# After the end of the experiment, skin was isolated from the occipital region. Hematoxylin/eosin (H&E) staining was performed to examine change of inflammatory cells such as mast cells, neutrophils, eosinophils, etc. in the epidermis, dermis and keratinocytes and change of skin thickness. Toluidine blue staining was performed to selectively stain the mast cells, and congo red staining was performed to selectively stain the eosinophils.
# IL-13 mRNA = IL-13 mRNA level in skin lesion (RT-PCR); type: in vivo, NC/Nga mice
# Procedure: In order to induce atopic dermatitis, 100 mg of mite antigen cream was applied on the ear, occipital region and back of NC/Nga mouse (9 to 11 weeks old), except for the negative control group, 3 times a week, 2 hours after the application of 4% SDS solution. Three weeks later, it was observed whether atopic dermatitis was induced by checking skin rash, erythema, cornification, or the like. Atopic dermatitis was induced in all groups except for the negative control group. […] Transepidermal water loss (TEWL), skin hydration and erythema index were measured one day before the end of the test. […]
# After the end of the experiment, skin tissue was isolated from the occipital region to the back of the mouse, immersed in liquid nitrogen, pulverized using a mortar, dissolved in 500 μL of TRIzol® (InvitrogenLife Technologies, USA), and then homogenized using a homogenizer in order to measure mRNA level of cytokines in skin lesion. […] After the centrifuge, the supernatant was discarded and the remaining pellets were washed 2 times with 100% ethanol, dried, and then subjected to RNA quantification by spectrophotometry. […]
# [2] = oral administration 50 and 150 mg/kg
# [3] = topical application 20 and 60 mg/kg
structure (smiles),measurement,setting,value
"COc1cc(C[C@H](C)[C@H](C)Cc2ccc3c(c2)OCO3)ccc1O (single isomer, unassigned) [macelignan]",viability of the RAW264.7 cells,RAW264.7 cells,no significant effect
same,Congo red staining: eosinophils,[1]; [2],effect of decreasing eosinophils
same,H&E staining: inflammatory cells and epidermal thickness,[1]; [2],effect of decreasing inflammatory cells and increased epidermal thickness
same,Toluidine blue staining: mast cells,[1]; [2],effect of decreasing mast cells
same,Congo red staining: eosinophils,[1]; [3],effect of decreasing eosinophils
same,H&E staining: inflammatory cells and epidermal thickness,[1]; [3],effect of decreasing inflammatory cells and increased epidermal thickness
same,Toluidine blue staining: mast cells,[1]; [3],effect of decreasing mast cells
same,IL-13 mRNA level in skin lesion,IL-13 mRNA; [2],statistically significant effect of decreasing IL-13 mRNA level
same,IL-13 mRNA level in skin lesion,IL-13 mRNA; [3],effect of decreasing IL-13 mRNA level

# — patent publication US8853264B2, “Use of lignan compounds for treating or preventing inflammatory disease” (Newtree Industry Co., Ltd., priority 2005, dated 2014)
